From patent US20250353891A1 (MEDIMMUNE LIMITED, priority 2022, published 2025)
Where two headings read alike, the source gives them in different places. Starred links: 1 amine or outer side, 2 acyl side, 3 side chain; linkers in the order of their positions; H or OH if unused. Non-standard residues stand in square brackets, D forms with d. Residues, ends and D or L forms follow the SMILES beside them. Groups on a side chain read outwards from the residue. *: point of attachment. C18 diacid = O=C(O)CCCCCCCCCCCCCCCCC(=O)*; γGlu = O=C(O)[C@H](CCC(=O)[*:2])N[*:1]; αMeF = C[C@](N)(Cc1ccccc1)C(=O)O; AEEA = NCCOCCOCC(=O)O; Aib = CC(C)(N)C(=O)O

Legend:
[1] = target: human GLP-1 receptor (hGLP-1R) (Homo sapiens, UniProt P43220); assay: cAMP production (HTRF) in CHO cells expressing hGLP-1R; type: cell-based; design: expressed in transfected cells; conditions: for EC50: Table 6, peptides modified at position 17, cAMP in CHO hGLP-1R cells, geometric mean; for % Relative Potency Ratio: Table 6, % GLP-1R activity relative to GLP-1 / % GlucR activity relative to glucagon
Procedure, shortened: (§1)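 Read-out: HTRF cAMP (anti-cAMP cryptate donor, cAMP-d2 acceptor in conjugate/lysis buffer), converted to % Delta F and fitted by 4-parameter logistic for EC50. Cell densities were 1×10^5 cells/mL (hGLP-1R) or 2×10^5 cells/mL (hGCGR). Stimulation lasted 30 min at room temperature.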

[2] = target: human glucagon receptor (hGCGR) (Homo sapiens, UniProt P47871); assay: cAMP production (HTRF) in CHO cells expressing hGCGR; type: cell-based; design: expressed in transfected cells; conditions: Table 6, peptides modified at position 17, cAMP in CHO hGCGR cells, geometric mean
Procedure, shortened: as §1

Sequence of human GLP-1 receptor (hGLP-1R) (P43220 24-463): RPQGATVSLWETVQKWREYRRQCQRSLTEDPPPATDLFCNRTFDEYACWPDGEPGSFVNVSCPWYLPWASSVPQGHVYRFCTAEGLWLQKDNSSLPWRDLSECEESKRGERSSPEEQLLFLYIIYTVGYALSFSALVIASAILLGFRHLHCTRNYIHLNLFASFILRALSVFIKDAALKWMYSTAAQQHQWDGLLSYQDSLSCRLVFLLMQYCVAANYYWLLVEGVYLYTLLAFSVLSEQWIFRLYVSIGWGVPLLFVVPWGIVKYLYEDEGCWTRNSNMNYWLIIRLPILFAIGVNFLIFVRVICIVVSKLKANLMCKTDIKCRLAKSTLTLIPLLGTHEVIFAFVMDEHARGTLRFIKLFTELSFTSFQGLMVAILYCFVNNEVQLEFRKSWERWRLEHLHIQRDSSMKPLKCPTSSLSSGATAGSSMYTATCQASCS
Sequence of human glucagon receptor (hGCGR) (P47871 26-477): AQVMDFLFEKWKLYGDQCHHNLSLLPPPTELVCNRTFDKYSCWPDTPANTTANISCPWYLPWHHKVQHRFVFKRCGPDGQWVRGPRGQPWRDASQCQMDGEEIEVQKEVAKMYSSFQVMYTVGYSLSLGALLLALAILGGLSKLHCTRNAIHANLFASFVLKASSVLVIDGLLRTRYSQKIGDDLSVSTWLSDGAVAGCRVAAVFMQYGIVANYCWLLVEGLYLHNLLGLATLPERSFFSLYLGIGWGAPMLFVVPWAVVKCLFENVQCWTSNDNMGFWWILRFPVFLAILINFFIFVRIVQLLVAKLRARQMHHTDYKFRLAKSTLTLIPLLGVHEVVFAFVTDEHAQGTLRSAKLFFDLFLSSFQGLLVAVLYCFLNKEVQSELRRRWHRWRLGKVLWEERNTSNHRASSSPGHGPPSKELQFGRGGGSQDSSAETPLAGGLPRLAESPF

Row | EC50 ([1]; read-out: hGLP-1R EC50) [pM] | % Relative Potency Ratio [1] | EC50 ([2]; read-out: hGluc-R EC50) [pM] | Structure (SMILES) | EC50 ([1]; hGLP-1R EC50 (pM)) [pM] | EC50 ([2]; hGluc-R EC50 (pM)) [pM]
1 | 48 | 11.1 | 270 | CC(C)C[C@H](NC(=O)[C@H](Cc1c[nH]c2ccccc12)NC(=O)[C@H](CCCNC(=N)N)NC(=O)[C@@H](NC(=O)[C@H](Cc1ccccc1)NC(=O)[C@H](CC(=O)O)NC(=O)[C@H](CCCNC(=N)N)NC(=O)[C@H](C)NC(=O)[C@H](CCCNC(=N)N)NC(=O)[C@H](CCCCNC(=O)COCCOCCNC(=O)COCCOCCNC(=O)CC[C@H](NC(=O)CCCCCCCCCCCCCCCCC(=O)O)C(=O)O)NC(=O)[C@H](CO)NC(=O)[C@H](CC(=O)O)NC(=O)[C@H](CC(C)C)NC(=O)[C@](C)(Cc1ccccc1)NC(=O)[C@H](CCCCN)NC(=O)[C@H](CO)NC(=O)[C@@H](NC(=O)[C@H](CC(=O)O)NC(=O)[C@H](CO)NC(=O)[C@@H](NC(=O)[C@H](Cc1ccccc1)NC(=O)[C@@H](NC(=O)CNC(=O)[C@H](CCC(N)=O)NC(=O)C(C)(C)NC(=O)[C@@H](N)Cc1c[nH]cn1)[C@@H](C)O)[C@@H](C)O)C(C)C)C(C)C)C(=O)N[C@@H](CC(C)C)C(=O)NC(C)(C)C(=O)N[C@H](C(=O)N[C@@H](CCC(=O)O)C(=O)O)[C@@H](C)O [Peptide 166] (H-H[Aib]QGTFTSDVSK[αMeF]LDSK([AEEA-AEEA-γGlu-C18 diacid])RARDFVRWLL[Aib]TE-OH; N-terminus assumed) | – | –
2 | 76.8 | 8.0 | 311 | CC(C)C[C@H](NC(=O)[C@H](Cc1c[nH]c2ccccc12)NC(=O)[C@H](C)NC(=O)[C@@H](NC(=O)[C@H](Cc1ccccc1)NC(=O)[C@H](CC(=O)O)NC(=O)[C@H](CCCNC(=N)N)NC(=O)[C@H](C)NC(=O)[C@H](CCCNC(=N)N)NC(=O)[C@H](CCCCNC(=O)COCCOCCNC(=O)COCCOCCNC(=O)CC[C@H](NC(=O)CCCCCCCCCCCCCCCCC(=O)O)C(=O)O)NC(=O)[C@H](CO)NC(=O)[C@H](CC(=O)O)NC(=O)[C@H](CC(C)C)NC(=O)[C@](C)(Cc1ccccc1)NC(=O)[C@H](CCCCN)NC(=O)[C@H](CO)NC(=O)[C@@H](NC(=O)[C@H](CC(=O)O)NC(=O)[C@H](CO)NC(=O)[C@@H](NC(=O)[C@H](Cc1ccccc1)NC(=O)[C@@H](NC(=O)CNC(=O)[C@H](CCC(N)=O)NC(=O)C(C)(C)NC(=O)[C@@H](N)Cc1c[nH]cn1)[C@@H](C)O)[C@@H](C)O)C(C)C)C(C)C)C(=O)N[C@@H](CC(C)C)C(=O)NC(C)(C)C(=O)N[C@H](C(=O)N[C@@H](CCC(=O)O)C(=O)O)[C@@H](C)O [Peptide 167] (H-H[Aib]QGTFTSDVSK[αMeF]LDSK([AEEA-AEEA-γGlu-C18 diacid])RARDFVAWLL[Aib]TE-OH; N-terminus assumed) | – | –
3 | 148 | 11.2 | 836 | CC(C)C[C@H](NC(=O)[C@H](Cc1c[nH]c2ccccc12)NC(=O)[C@H](CCCNC(=N)N)NC(=O)[C@@H](NC(=O)[C@H](Cc1ccccc1)NC(=O)[C@H](CC(=O)O)NC(=O)[C@H](CCC(N)=O)NC(=O)[C@H](C)NC(=O)[C@H](CCCNC(=N)N)NC(=O)[C@H](CCCCNC(=O)COCCOCCNC(=O)COCCOCCNC(=O)CC[C@H](NC(=O)CCCCCCCCCCCCCCCCC(=O)O)C(=O)O)NC(=O)[C@H](CCC(=O)O)NC(=O)[C@H](CC(=O)O)NC(=O)[C@H](CC(C)C)NC(=O)[C@](C)(Cc1ccccc1)NC(=O)[C@H](CCCCN)NC(=O)[C@H](CO)NC(=O)[C@@H](NC(=O)[C@H](CC(=O)O)NC(=O)[C@H](CO)NC(=O)[C@@H](NC(=O)[C@H](Cc1ccccc1)NC(=O)[C@@H](NC(=O)CNC(=O)[C@H](CCC(N)=O)NC(=O)C(C)(C)NC(=O)[C@@H](N)Cc1c[nH]cn1)[C@@H](C)O)[C@@H](C)O)C(C)C)C(C)C)C(=O)N[C@@H](CC(C)C)C(=O)NC(C)(C)C(=O)N[C@H](C(=O)N[C@@H](CCC(=O)O)C(=O)O)[C@@H](C)O [Peptide 170] (H-H[Aib]QGTFTSDVSK[αMeF]LDEK([AEEA-AEEA-γGlu-C18 diacid])RAQDFVRWLL[Aib]TE-OH; N-terminus assumed) | – | –

Second part, the compound before the results:

Row | Structure (SMILES) | EC50 ([1]; read-out: hGLP-1R EC50) [pM] | % Relative Potency Ratio [1] | EC50 ([2]; read-out: hGluc-R EC50) [pM] | EC50 ([1]; hGLP-1R EC50 (pM)) [pM] | EC50 ([2]; hGluc-R EC50 (pM)) [pM]
4 | CC(C)C[C@H](NC(=O)[C@H](Cc1c[nH]c2ccccc12)NC(=O)[C@H](CCCNC(=N)N)NC(=O)[C@@H](NC(=O)[C@H](Cc1ccccc1)NC(=O)[C@H](CC(=O)O)NC(=O)[C@H](CCC(N)=O)NC(=O)[C@H](C)NC(=O)[C@H](CCCNC(=N)N)NC(=O)[C@H](CCCCNC(=O)COCCOCCNC(=O)COCCOCCNC(=O)CC[C@H](NC(=O)CCCCCCCCCCCCCCCCC(=O)O)C(=O)O)NC(=O)[C@H](CO)NC(=O)[C@H](CC(=O)O)NC(=O)[C@H](CC(C)C)NC(=O)[C@](C)(Cc1ccccc1)NC(=O)[C@H](CCCCN)NC(=O)[C@H](CO)NC(=O)[C@@H](NC(=O)[C@H](CC(=O)O)NC(=O)[C@H](CO)NC(=O)[C@@H](NC(=O)[C@H](Cc1ccccc1)NC(=O)[C@@H](NC(=O)CNC(=O)[C@H](CCC(N)=O)NC(=O)C(C)(C)NC(=O)[C@@H](N)Cc1c[nH]cn1)[C@@H](C)O)[C@@H](C)O)C(C)C)C(C)C)C(=O)N[C@H](C(=O)NC(C)(C)C(=O)N[C@H](C(=O)N[C@@H](CCC(=O)O)C(=O)O)[C@@H](C)O)C(C)C [Peptide 165] (H-H[Aib]QGTFTSDVSK[αMeF]LDSK([AEEA-AEEA-γGlu-C18 diacid])RAQDFVRWLV[Aib]TE-OH; N-terminus assumed) | 50.9 | 40.0 | 1030 | – | –
5 | CC(C)C[C@H](NC(=O)[C@H](C)NC(=O)[C@H](CCCNC(=N)N)NC(=O)[C@H](CCCCNC(=O)COCCOCCNC(=O)COCCOCCNC(=O)CC[C@H](NC(=O)CCCCCCCCCCCCCCCCC(=O)O)C(=O)O)NC(=O)[C@H](CO)NC(=O)[C@H](CC(=O)O)NC(=O)[C@H](CC(C)C)NC(=O)[C@](C)(Cc1ccccc1)NC(=O)[C@H](CCCCN)NC(=O)[C@H](CO)NC(=O)[C@@H](NC(=O)[C@H](CC(=O)O)NC(=O)[C@H](CO)NC(=O)[C@@H](NC(=O)[C@H](Cc1ccccc1)NC(=O)[C@@H](NC(=O)CNC(=O)[C@H](CCC(N)=O)NC(=O)C(C)(C)NC(=O)[C@@H](N)Cc1c[nH]cn1)[C@@H](C)O)[C@@H](C)O)C(C)C)C(=O)N[C@@H](CC(=O)O)C(=O)N[C@@H](Cc1ccccc1)C(=O)N[C@H](C(=O)N[C@@H](CCCNC(=N)N)C(=O)N[C@@H](Cc1c[nH]c2ccccc12)C(=O)N[C@@H](CC(C)C)C(=O)N[C@@H](CC(C)C)C(=O)NC(C)(C)C(=O)N[C@H](C(=O)N[C@@H](CCC(=O)O)C(=O)O)[C@@H](C)O)C(C)C [Peptide 168] (H-H[Aib]QGTFTSDVSK[αMeF]LDSK([AEEA-AEEA-γGlu-C18 diacid])RALDFVRWLL[Aib]TE-OH; N-terminus assumed) | 448 | 3.9 | 886 | – | –
6 | CC(C)C[C@H](NC(=O)[C@H](CCC(=O)O)NC(=O)[C@H](CC(C)C)NC(=O)[C@](C)(Cc1ccccc1)NC(=O)[C@H](CCCCN)NC(=O)[C@H](CO)NC(=O)[C@@H](NC(=O)[C@H](CC(=O)O)NC(=O)[C@H](CO)NC(=O)[C@@H](NC(=O)[C@H](Cc1ccccc1)NC(=O)[C@@H](NC(=O)CNC(=O)[C@H](CCC(N)=O)NC(=O)C(C)(C)NC(=O)[C@@H](N)Cc1c[nH]cn1)[C@@H](C)O)[C@@H](C)O)C(C)C)C(=O)N[C@@H](CCCCNC(=O)COCCOCCNC(=O)COCCOCCNC(=O)CC[C@H](NC(=O)CCCCCCCCCCCCCCCCC(=O)O)C(=O)O)C(=O)N[C@@H](CCCNC(=N)N)C(=O)N[C@@H](C)C(=O)N[C@@H](CCC(N)=O)C(=O)N[C@@H](CC(=O)O)C(=O)N[C@@H](Cc1ccccc1)C(=O)N[C@H](C(=O)N[C@@H](CCCNC(=N)N)C(=O)N[C@@H](Cc1c[nH]c2ccccc12)C(=O)N[C@@H](CC(C)C)C(=O)N[C@@H](CC(C)C)C(=O)NC(C)(C)C(=O)N[C@H](C(=O)N[C@@H](CCC(=O)O)C(=O)O)[C@@H](C)O)C(C)C [Peptide 169] (H-H[Aib]QGTFTSDVSK[αMeF]LELK([AEEA-AEEA-γGlu-C18 diacid])RAQDFVRWLL[Aib]TE-OH; N-terminus assumed) | – | – | – | 210 | 1400
7 | CC(C)C[C@H](NC(=O)[C@H](Cc1c[nH]c2ccccc12)NC(=O)[C@H](CCCNC(=N)N)NC(=O)[C@@H](NC(=O)[C@H](Cc1ccccc1)NC(=O)[C@H](CC(=O)O)NC(=O)[C@H](CCC(N)=O)NC(=O)[C@H](C)NC(=O)[C@H](CCCNC(=N)N)NC(=O)[C@H](CCCCNC(=O)COCCOCCNC(=O)COCCOCCNC(=O)CC[C@H](NC(=O)CCCCCCCCCCCCCCCCC(=O)O)C(=O)O)NC(=O)[C@H](CO)NC(=O)[C@H](CC(=O)O)NC(=O)[C@H](CC(C)C)NC(=O)[C@](C)(Cc1ccccc1)NC(=O)[C@H](CCCCN)NC(=O)[C@H](CO)NC(=O)[C@@H](NC(=O)[C@H](CC(=O)O)NC(=O)[C@H](CO)NC(=O)[C@@H](NC(=O)[C@H](Cc1ccccc1)NC(=O)[C@@H](NC(=O)CNC(=O)[C@H](CCC(N)=O)NC(=O)C(C)(C)NC(=O)[C@@H](N)Cc1c[nH]cn1)[C@@H](C)O)[C@@H](C)O)C(C)C)C(C)C)C(=O)N[C@@H](CCC(=O)O)C(=O)NC(C)(C)C(=O)N[C@H](C(=O)N[C@@H](CCC(=O)O)C(=O)O)[C@@H](C)O [Peptide 171] (H-H[Aib]QGTFTSDVSK[αMeF]LDSK([AEEA-AEEA-γGlu-C18 diacid])RAQDFVRWLE[Aib]TE-OH; N-terminus assumed) | 107 | 7.0 | 376 | – | –
